Laboratory results: ChEMBL document CHEMBL3868599, “Strategy for designing selective α-l-rhamnosidase inhibitors: Synthesis and biological evaluation of l-DMDP cyclic isothioureas” (Bioorg Med Chem, 2017)
Each block holds one molecule with its values, some of them ahead of it.

Experiments:
[1] = Inhibition of rice alpha-glucosidase using p-nitrophenyl-glycoside as substrate by spectrophotometric method; design: species or system Oryza sativa
[2] = Inhibition of bovine liver beta-glucosidase using p-nitrophenyl-glycoside as substrate by spectrophotometric method; design: species or system Bos taurus
[3] = system: Escherichia coli; assay: Inhibition of Escherichia coli beta-glucuronidase at 1000 uM using p-nitrophenyl-glycoside as substrate by spectrophotometric method
[4] = molecular target: T1, Beta-galactosidase (Bos taurus, UniProt Q58D55); assay: (§1) Inhibition of bovine liver beta-galactosidase using p-nitrophenyl-glycoside as substrate by spectrophotometric method
T1 sequence (Q58D55 whole entry): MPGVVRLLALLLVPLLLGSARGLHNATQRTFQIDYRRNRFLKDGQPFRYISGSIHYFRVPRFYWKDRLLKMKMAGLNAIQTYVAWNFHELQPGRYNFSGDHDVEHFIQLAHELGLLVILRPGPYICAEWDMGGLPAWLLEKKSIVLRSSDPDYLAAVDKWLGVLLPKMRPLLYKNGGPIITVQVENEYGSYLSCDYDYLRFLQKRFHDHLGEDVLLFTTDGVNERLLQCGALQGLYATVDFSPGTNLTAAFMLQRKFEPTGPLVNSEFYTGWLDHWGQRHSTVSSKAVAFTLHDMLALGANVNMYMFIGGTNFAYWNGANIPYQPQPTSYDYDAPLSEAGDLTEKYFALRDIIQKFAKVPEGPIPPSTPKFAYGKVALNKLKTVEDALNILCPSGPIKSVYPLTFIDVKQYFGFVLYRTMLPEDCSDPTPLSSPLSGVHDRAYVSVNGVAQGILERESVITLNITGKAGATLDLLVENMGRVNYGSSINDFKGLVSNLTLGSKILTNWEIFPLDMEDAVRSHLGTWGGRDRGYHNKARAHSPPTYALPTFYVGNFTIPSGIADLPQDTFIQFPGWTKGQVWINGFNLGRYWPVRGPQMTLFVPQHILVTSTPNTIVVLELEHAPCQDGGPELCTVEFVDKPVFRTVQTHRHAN

[5] = system: Aspergillus niger; assay: Inhibition of Aspergillus niger amyloglucosidase assessed as D-glucose level at 1000 uM using maltose as substrate measured after 10 to 30 mins
[6] = system: Penicillium decumbens; assay: Inhibition of Penicillium decumbens alpha-L-rhamnosidase at 1000 uM using p-nitrophenyl-glycoside as substrate by spectrophotometric method
[7] = molecular target: T2, Uncharacterized protein (Sus scrofa) (UniProt I3LIR5); assay: Inhibition of porcine kidney trehalase assessed as D-glucose level at 1000 uM using maltose as substrate measured after 10 to 30 mins
T2 sequence (whole entry): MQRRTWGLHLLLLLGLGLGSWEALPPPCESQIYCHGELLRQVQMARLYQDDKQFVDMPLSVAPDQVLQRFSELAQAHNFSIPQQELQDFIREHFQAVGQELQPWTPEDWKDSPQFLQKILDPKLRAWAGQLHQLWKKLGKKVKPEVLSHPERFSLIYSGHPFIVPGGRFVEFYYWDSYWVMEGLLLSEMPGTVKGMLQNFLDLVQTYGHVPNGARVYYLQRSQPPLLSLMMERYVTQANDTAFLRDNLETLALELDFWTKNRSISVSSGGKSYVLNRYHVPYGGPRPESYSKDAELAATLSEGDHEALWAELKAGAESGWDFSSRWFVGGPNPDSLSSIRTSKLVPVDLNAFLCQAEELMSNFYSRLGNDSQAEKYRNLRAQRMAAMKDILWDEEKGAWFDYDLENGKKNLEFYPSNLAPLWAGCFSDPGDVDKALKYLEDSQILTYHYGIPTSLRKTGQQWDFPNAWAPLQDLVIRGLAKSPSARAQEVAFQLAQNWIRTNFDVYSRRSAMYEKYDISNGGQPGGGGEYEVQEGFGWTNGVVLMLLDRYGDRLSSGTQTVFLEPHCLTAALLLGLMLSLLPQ

[8] = Inhibition of maltase in rat small intestinal brush border membranes assessed as D-glucose level using maltose as substrate measured after 10 to 30 mins
[9] = system: Prunus dulcis; assay: Inhibition of almond beta-glucosidase at 1000 uM using p-nitrophenyl-glycoside as substrate by spectrophotometric method
[10] = molecular target: T3, Tissue alpha-L-fucosidase (Bos taurus) (UniProt Q2KIM0); assay: Inhibition of bovine kidney alpha-L-fucosidase at 1000 uM using p-nitrophenyl-glycoside as substrate by spectrophotometric method
T3 sequence (whole entry): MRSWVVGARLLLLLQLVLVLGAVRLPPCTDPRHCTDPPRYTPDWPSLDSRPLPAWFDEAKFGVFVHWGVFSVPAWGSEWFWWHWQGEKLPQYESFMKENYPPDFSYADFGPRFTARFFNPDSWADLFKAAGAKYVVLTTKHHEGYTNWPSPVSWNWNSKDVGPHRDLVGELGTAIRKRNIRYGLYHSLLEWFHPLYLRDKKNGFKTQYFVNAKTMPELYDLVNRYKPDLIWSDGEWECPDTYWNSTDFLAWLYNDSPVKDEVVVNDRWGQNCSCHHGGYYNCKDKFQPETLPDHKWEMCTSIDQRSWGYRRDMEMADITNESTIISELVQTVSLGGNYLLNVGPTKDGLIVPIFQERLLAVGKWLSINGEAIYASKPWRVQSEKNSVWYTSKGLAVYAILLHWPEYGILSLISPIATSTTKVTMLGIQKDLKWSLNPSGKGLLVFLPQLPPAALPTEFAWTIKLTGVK

[11] = species on record: Homo sapiens; assay: Inhibition of human lysosomal beta-glucosidase at 1000 uM using 4-methylumbelliferyl-beta-D-glucopyranoside as substrate preincubated for 45 mins followed by substrate addition measured after 30 mins by fluorescence spectrophotometric method
[12] = Inhibition of Penicillium decumbens alpha-L-rhamnosidase using p-nitrophenyl-glycoside as substrate by spectrophotometric method
[13] = Competitive inhibition of Penicillium decumbens alpha-L-rhamnosidase using p-nitrophenyl-glycoside as substrate by Lineweaver-Burk plot analysis
[14] = system: Penicillium decumbens; assay: Potency index, ratio of 5-epi-deoxyrhamnojirimycin IC50 to compound IC50 for Penicillium decumbens alpha-L-rhamnosidase
[15] = Inhibition of Penicillium decumbens alpha-L-rhamnosidase assessed as reduction in hydrolysis of p-nitrophenyl-a-L-rhamnopyranoside
[16] = Inhibition of Penicillium decumbens alpha-L-rhamnosidase
[17] = molecular target: T4, Alpha-mannosidase (Canavalia ensiformis) (UniProt C0HJB3); assay: Inhibition of Jack bean alpha-mannosidase at 1000 uM preincubated for 45 mins followed by addition of p-nitrophenyl-glycoside as substrate measured after 30 mins by fluorescence spectrophometry
T4 sequence (whole entry): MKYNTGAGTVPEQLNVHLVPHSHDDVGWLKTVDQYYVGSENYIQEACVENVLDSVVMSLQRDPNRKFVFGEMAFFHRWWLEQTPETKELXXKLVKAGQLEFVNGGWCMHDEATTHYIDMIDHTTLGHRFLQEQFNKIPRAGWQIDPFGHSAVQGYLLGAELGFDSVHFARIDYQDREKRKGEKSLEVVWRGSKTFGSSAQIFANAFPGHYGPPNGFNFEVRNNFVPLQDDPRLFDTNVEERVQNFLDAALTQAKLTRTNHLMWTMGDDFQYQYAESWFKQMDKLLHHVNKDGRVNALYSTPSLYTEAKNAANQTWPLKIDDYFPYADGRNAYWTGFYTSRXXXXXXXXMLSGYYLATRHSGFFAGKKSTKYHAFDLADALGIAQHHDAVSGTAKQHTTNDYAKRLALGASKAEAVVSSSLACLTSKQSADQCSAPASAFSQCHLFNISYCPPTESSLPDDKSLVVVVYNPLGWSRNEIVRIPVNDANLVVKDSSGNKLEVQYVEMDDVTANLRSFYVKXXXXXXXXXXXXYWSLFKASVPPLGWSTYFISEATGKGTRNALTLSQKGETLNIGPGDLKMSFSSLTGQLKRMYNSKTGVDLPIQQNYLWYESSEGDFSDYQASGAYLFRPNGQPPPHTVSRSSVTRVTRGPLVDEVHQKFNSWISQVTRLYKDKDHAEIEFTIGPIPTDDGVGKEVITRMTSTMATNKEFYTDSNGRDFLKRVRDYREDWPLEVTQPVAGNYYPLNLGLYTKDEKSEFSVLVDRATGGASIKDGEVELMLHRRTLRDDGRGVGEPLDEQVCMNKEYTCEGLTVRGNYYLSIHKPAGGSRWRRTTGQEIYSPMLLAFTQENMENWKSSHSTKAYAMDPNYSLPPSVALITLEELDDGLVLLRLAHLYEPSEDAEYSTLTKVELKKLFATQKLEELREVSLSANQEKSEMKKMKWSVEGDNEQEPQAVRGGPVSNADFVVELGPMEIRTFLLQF

[18] = system: Escherichia coli; assay: Inhibition of Escherichia coli beta-galactosidase at 1000 uM using p-nitrophenyl-glycoside as substrate by spectrophotometric method
[19] = Inhibition of human lysosomal beta-glucosidase using 4-methylumbelliferyl-beta-D-glucopyranoside as substrate preincubated for 45 mins followed by substrate addition measured after 30 mins by fluorescence spectrophotometric method
[20] = system: Coffea; assay: Inhibition of coffee bean alpha-galactosidase at 1000 uM using p-nitrophenyl-glycoside as substrate by spectrophotometric method
[21] = system: Helix pomatia; assay: Inhibition of Helix pomatia beta-mannosidase at 1000 uM using p-nitrophenyl-glycoside as substrate by spectrophotometric method
[22] = molecular target: T5, Beta-galactosidase (Bos taurus) (UniProt Q58D55); assay: Inhibition of bovine liver beta-galactosidase at 1000 uM using p-nitrophenyl-glycoside as substrate by spectrophotometric method
T5 sequence (whole entry): T1 sequence (Q58D55 whole entry)

[23] = system: Saccharomyces cerevisiae; assay: Inhibition of yeast alpha-glucosidase at 1000 uM using p-nitrophenyl-glycoside as substrate by spectrophotometric method
[24] = species on record: Rattus norvegicus; assay: Inhibition of rat intestinal maltase assessed as D-glucose level at 1000 uM using maltose as substrate measured after 10 to 30 mins
[25] = system: Oryza sativa; assay: Inhibition of rice alpha-glucosidase at 1000 uM using p-nitrophenyl-glycoside as substrate by spectrophotometric method
[26] = system: Aspergillus niger; assay: Inhibition of Aspergillus niger amyloglucosidase assessed as D-glucose level at 100 uM using maltose as substrate measured after 10 to 30 mins
[27] = molecular target: T3, Tissue alpha-L-fucosidase (Bos taurus); assay: Inhibition of bovine kidney alpha-L-fucosidase at 100 uM using p-nitrophenyl-glycoside as substrate by spectrophotometric method
[28] = molecular target: T5, Beta-galactosidase (Bos taurus); assay: as §1; conditions: concentration not given here
[29] = system: Escherichia coli; assay: Inhibition of Escherichia coli beta-glucuronidase at 100 uM using p-nitrophenyl-glycoside as substrate by spectrophotometric method
[30] = species on record: Rattus norvegicus; assay: Inhibition of rat intestinal maltase assessed as D-glucose level at 100 uM using maltose as substrate measured after 10 to 30 mins
[31] = system: Prunus dulcis; assay: Inhibition of almond beta-glucosidase at 100 uM using p-nitrophenyl-glycoside as substrate by spectrophotometric method
[32] = system: Oryza sativa; assay: Inhibition of rice alpha-glucosidase at 100 uM using p-nitrophenyl-glycoside as substrate by spectrophotometric method
[33] = molecular target: T2, Uncharacterized protein (Sus scrofa); assay: Inhibition of porcine kidney trehalase assessed as D-glucose level at 100 uM using maltose as substrate measured after 10 to 30 mins
[34] = species on record: Homo sapiens; assay: Inhibition of human lysosomal beta-glucosidase at 100 uM using 4-methylumbelliferyl-beta-D-glucopyranoside as substrate preincubated for 45 mins followed by substrate addition measured after 30 mins by fluorescence spectrophotometric method

SMILES: CCCCCCCCNC(=S)N1[C@@H](CO)[C@H](O)[C@@H](O)[C@@H]1CO
IC50 [1]: 1000 µM
IC50 [2]: 178 µM
inhibition [3]: < 50%
IC50 [4]: 266 µM
inhibition [5]: < 50%
inhibition [6]: < 50%
inhibition [7]: < 50%
IC50 [8]: 1000 µM
inhibition [9]: < 50%
inhibition [10]: < 50%
inhibition [11]: < 50%

SMILES: O[C@@H]1[C@@H]2[C@@H](O)CCCN2C[C@@H]1O
IC50 [15]: 0.3 µM

SMILES: C[C@H]1NC[C@H](O)[C@H](O)[C@H]1O
IC50 [16]: 5 µM
IC50 [12]: 10 µM
Ki [13]: 4.2 µM

The remaining lines, values ahead:

IC50 [12]: 0.23 µM
Ki [13]: 0.11 µM
Ratio IC50 [14]: 46
SMILES: OC[C@H]1[C@H](O)[C@@H](O)[C@@H]2CS/C(=N/Cc3ccc(Cl)c(Cl)c3)N12

inhibition [17]: < 50%
inhibition [18]: < 50%
IC50 [19]: 2.4 µM
IC50 [2]: 63 µM
inhibition [3]: < 50%
inhibition [20]: < 50%
inhibition [5]: < 50%
inhibition [21]: < 50%
inhibition [6]: < 50%
inhibition [22]: < 50%
inhibition [7]: < 50%
inhibition [23]: < 50%
inhibition [9]: < 50%
inhibition [24]: < 50%
inhibition [10]: < 50%
inhibition [25]: < 50%
SMILES: CCCCCCCC/N=C1/SC[C@@H]2[C@@H](O)[C@H](O)[C@@H](CO)N12

inhibition [26]: < 50%
IC50 [2]: 33 µM
inhibition [27]: < 50%
inhibition [28]: < 50%
inhibition [29]: < 50%
inhibition [30]: < 50%
IC50 [12]: 0.87 µM
inhibition [31]: < 50%
inhibition [32]: < 50%
inhibition [33]: < 50%
inhibition [34]: < 50%
SMILES: OC[C@H]1[C@H](O)[C@@H](O)[C@@H]2CS/C(=N/CCCCCCCCCc3ccccc3)N12
